According to US9603980B2, “Layer-by-layer stereocomplexed polymers as drug depot carriers or coatings in medical devices” (Cardinal Health Switzerland 515 GmbH, priority 2008, dated 2017):

Columns and labels:
[1] = test system: restenosis after coronary angioplasty; test: MVP randomized clinical trial, angiographic and clinical outcome; format: in vivo, human
From the text: In addition, the invention enables the skilled practitioner to use probucol in conjunction with other percutaneous coronary interventions such as stenting if it is deemed appropriate. The present invention concerns the IVUS substudy from the MVP restenosis trial. MVP was a double-blind placebo-controlled randomized clinical trial with four study groups. The protocol was approved by the Montreal Heart Institute institutional review board. The MVP study design, inclusion and exclusion criteria have been previously described (N Engl J Med 1997; 365-372). Briefly, patients referred for elective coronary angioplasty were evaluated at least 30 days prior to their scheduled procedure. Eligible patients were asked to provide written informed consent. Patients were eligible if they were scheduled to undergo standard balloon angioplasty on at least one native coronary artery and had at least one de novo target lesion with luminal narrowing of fifty percent or more by caliper measurements. Beginning thirty days prior to scheduled angioplasty, patients were randomly assigned to receive either probucol alone, multivitamins alone, the combination of probucol and multivitamins, or placebo. Probucol 500 mg or matched placebo was administered twice daily. The multivitamin complex, consisting of vitamin E 700 IU, vitamin C 500 mg and beta-carotene 30,000 IU, or matched placebo was also administered in one tablet twice daily. All patients received an extra dose of probucol 1000 mg and/or vitamin E 2000 IU and/or matched placebos twelve hours before angioplasty, according to randomization assignment. […] Balloon angioplasty was performed according to standard techniques. […] The sequence of contrast injections with the exact degree of angulation was recorded and used for every angiogram. Coronary arteriograms (pre-, post-procedure, and final follow-up) were analyzed together using the Coronary Measurement System (CMS), as previously reported. Patient follow-up included clinical evaluation, exercise treadmill testing, blood chemistry, pill count and drug level measurements, and dietary assessment and intervention. Patients were readmitted for follow-up coronary angiography at five to seven months. Patients in whom arteriography was performed for clinical reasons before the fifth month returned for repeat angiographic examination at five to seven months if no definite angiographic restenosis was present on at least one dilated site. During follow-up, patients with recurrence or exacerbation of anginal symptoms were treated with medical therapy or revascularization procedures (reangioplasty or Coronary Bypass Surgery) as clinically indicated. […]

[2] = test system: tissue hyperplasia and vascular remodeling after coronary angioplasty; test: IVUS substudy of the MVP restenosis trial; format: in vivo, human; conditions: for Lumen area: Follow-up Post PTCA (change)
From the text: Serial intravascular ultrasound (IVUS) examinations have been performed in a consecutive series of patients involved in the MVP trial. By providing tomographic views of coronary arteries with high resolution, IVUS allows quantitative assessment of changes in arterial lumen and wall dimensions. We were therefore able in this study to determine the pathophysiology of coronary restenosis after balloon angioplasty in patients systematically undergoing follow-up IVUS examination and determine the effect of probucol on tissue hyperplasia and vascular remodeling after coronary angioplasty.
The present invention concerns the IVUS substudy from the MVP restenosis trial. MVP was a double-blind placebo-controlled randomized clinical trial with four study groups. The protocol was approved by the Montreal Heart Institute institutional review board. The MVP study design, inclusion and exclusion criteria have been previously described (N Engl J Med 1997; 365-372). Briefly, patients referred for elective coronary angioplasty were evaluated at least 30 days prior to their scheduled procedure. Eligible patients were asked to provide written informed consent. Patients were eligible if they were scheduled to undergo standard balloon angioplasty on at least one native coronary artery and had at least one de novo target lesion with luminal narrowing of fifty percent or more by caliper measurements.
Beginning thirty days prior to scheduled angioplasty, patients were randomly assigned to receive either probucol alone, multivitamins alone, the combination of probucol and multivitamins, or placebo. Probucol 500 mg or matched placebo was administered twice daily. […] The sequence of contrast injections with the exact degree of angulation was recorded and used for every angiogram. Coronary arteriograms (pre-, post-procedure, and final follow-up) were analyzed together using the Coronary Measurement System (CMS), as previously reported. […] Patients were readmitted for follow-up coronary angiography at five to seven months. […]

[3] = test system: LDL; test: Lag phase for LDL peroxidation ex vivo, diene conjugates after addition of copper ions; design: species or system human; conditions: treatment for one month; compared with vitamins alone or the combination of probucol and vitamins; preliminary results
[4] = Porcine drug elution PK study of dual drug eluting coating; format: in vivo; conditions: after eight (8) days of implantation, single-layer coating of FIG. 83
From the text: Another critical parameter for the performance of the thrombus resistance of a device coated with cilostazol is the duration of the drug release from the coating. This is of particular significance in the two weeks after device implantation. In the porcine drug elution PK studies of the dual drug eluting coating, both cilostazol and sirolius were slowly released from the coating, resulting in a sustained drug release profile. The purpose of the porcine PK study is to assess the local pharmacokinetics of a drug eluting stent at a given implantation time. Normally three stents are implanted in three different coronary arteries in a pig for a given time point and then retrieved for total drug recovery analysis. The stents are retrieved at predetermined time points; namely, 1, 3 and 8 days. The stents are extracted and the total amount of drug remaining on the stents is determined by analysis utilizing HPLC (high performance liquid chromatography) for total drug amount. The difference between the original amount of drug on the stent and the amount of drug retrieved at a given time represents the amount of drug released in that period. The continuous release of drug into surrounding arterial tissue is what prevents the neointimal growth and restenosis in the coronary artery. A normal plot represents the percentage of total drug released (%, y-axis) vs. time of implantation (day, x-axis). […]

[5] = In vitro release of sirolimus and cilostazol from single-layer coating; format: physicochemical; conditions: single-layer coating of FIG. 83
[6] = compared to placebo, probucol given alone

Structure (SMILES) | reduction of the need for repeat angioplasty ([1]; at 6 month, compared to placebo, probucol given alone) | reduction of angiographic lumen loss [1, 6] | reduction of restenosis rate per segment [1, 6] | patients in whom restenosis still occurred ([1]; patients given probucol alone) | Lumen area ([2]; compliant patients only) [mm^2] | Lumen area ([2]; per segment) [mm^2] | increase in vessel enlargement ([2]; probucol only compared with placebo) | protection against LDL oxidation [3] | drug remaining in the drug coating [4] [%] | in vitro release [5] [%]
CC(C)(Sc1cc(C(C)(C)C)c(O)c(C(C)(C)C)c1)Sc1cc(C(C)(C)C)c(O)c(C(C)(C)C)c1 [Probucol Alone, 4,4′-([1-methylethylidene)bis(thio)]bis-[2,6-bis(1,1-dimethylethyl)phenol]] | fifty-eight | sixty-eight | forty-seven | over twenty | −0.15 ± 1.70 | −0.15 ± 1.70 | seven hundred-thirty | significantly greater protection | – | –
O=C1CCc2cc(OCCCCc3nnnn3C3CCCCC3)ccc2N1 [cilostazol, 6[4-(1-cyclohexyl-1H-tetrazol-5-yl)-butoxy]-3,4-dihydro-2-(1H)-quinolinone] | – | – | – | – | – | – | – | – | ~80 | ~35
